Results as given in ChEMBL document CHEMBL1151757, “Synthesis, radiosynthesis, and biological evaluation of fluorine-18-labeled 2beta-carbo(fluoroalkoxy)-3beta-(3'-((Z)-2-haloethenyl)phenyl)nortropanes: candidate radioligands for in vivo imaging of the serotonin transporter with positron emission tomography” (J Med Chem, 2008).

Columns and labels:
[1] = Drug uptake in anesthetized cynomolgus monkey brain occipital lobe after 0.5 mins postinjection; type: ADME, organism-based, Macaca fascicularis; conditions: in vivo
[2] = Ratio of drug uptake in frontal lobe to cerebellum in anesthetized cynomolgus monkey after 195 mins postinjection; type: ADME, organism-based, Macaca fascicularis; conditions: in vivo, 3.25 h
[3] = Drug uptake in anesthetized cynomolgus monkey brain frontal lobe after 145 mins postinjection; type: ADME, organism-based, Macaca fascicularis; conditions: in vivo
Midbrain [4] = assay: Drug uptake in anesthetized cynomolgus monkey brain midbrain after 215 mins postinjection; type: ADME, organism-based, Macaca fascicularis; conditions: in vivo
[5] = Ratio of drug uptake in medulla to cerebellum in anesthetized cynomolgus monkey after 85 mins postinjection; type: ADME, organism-based, Macaca fascicularis; conditions: in vivo
Pons [6] = assay: Drug uptake in anesthetized cynomolgus monkey brain pons after 205 mins postinjection; type: ADME, organism-based, Macaca fascicularis; conditions: in vivo
[7] = Drug uptake in anesthetized cynomolgus monkey brain occipital lobe after 225 mins postinjection; type: ADME, organism-based, Macaca fascicularis; conditions: in vivo, 3.75 h
Caudate [8] = assay: Drug uptake in anesthetized cynomolgus monkey brain caudate after 45 mins postinjection; type: ADME, organism-based, Macaca fascicularis, Caudate nucleus; conditions: in vivo, 0.75 h
Medulla [9] = assay: Drug uptake in anesthetized cynomolgus monkey brain medulla after 27.5 mins postinjection; type: ADME, organism-based, Macaca fascicularis; conditions: in vivo
[10] = Drug uptake in anesthetized cynomolgus monkey brain frontal lobe after 3.5 mins postinjection; type: ADME, organism-based, Macaca fascicularis; conditions: in vivo
Caudate [11] = assay: Drug uptake in anesthetized cynomolgus monkey brain caudate after 22.5 mins postinjection; type: ADME, organism-based, Macaca fascicularis, Caudate nucleus; conditions: in vivo, 0.375 h
[12] = Ratio of drug uptake in occipital lobe to cerebellum in anesthetized cynomolgus monkey after 205 mins postinjection; type: ADME, organism-based, Macaca fascicularis; conditions: in vivo
Pons [13] = assay: Drug uptake in anesthetized cynomolgus monkey brain pons after 45 mins postinjection; type: ADME, organism-based, Macaca fascicularis; conditions: in vivo, 0.75 h
Caudate [14] = assay: Drug uptake in anesthetized cynomolgus monkey brain caudate after 35 mins postinjection; type: ADME, organism-based, Macaca fascicularis, Caudate nucleus; conditions: in vivo
Caudate [15] = assay: Drug uptake in anesthetized cynomolgus monkey brain caudate after 18.5 mins postinjection; type: ADME, organism-based, Macaca fascicularis, Caudate nucleus; conditions: in vivo
Thalamus [16] = assay: Drug uptake in anesthetized cynomolgus monkey brain thalamus after 18.5 mins postinjection; type: ADME, organism-based, Macaca fascicularis; set-up: unit not given here; conditions: in vivo
[17] = Drug uptake in anesthetized cynomolgus monkey brain frontal lobe after 9.5 mins postinjection; type: ADME, organism-based, Macaca fascicularis; conditions: in vivo
[18] = Ratio of drug uptake in medulla to cerebellum in anesthetized cynomolgus monkey after 18.5 mins postinjection; type: ADME, organism-based, Macaca fascicularis; conditions: in vivo
[19] = Ratio of drug uptake in occipital lobe to cerebellum in anesthetized cynomolgus monkey after 18.5 mins postinjection; type: ADME, organism-based, Macaca fascicularis; conditions: in vivo
Thalamus [20] = assay: Drug uptake in anesthetized cynomolgus monkey brain thalamus after 125 mins postinjection; type: ADME, organism-based, Macaca fascicularis; set-up: unit not given here; conditions: in vivo
Thalamus [21] = assay: Drug uptake in anesthetized cynomolgus monkey brain thalamus after 2.5 mins postinjection; type: ADME, organism-based, Macaca fascicularis; set-up: unit not given here; conditions: in vivo
Medulla [22] = assay: Drug uptake in anesthetized cynomolgus monkey brain medulla after 155 mins postinjection; type: ADME, organism-based, Macaca fascicularis; conditions: in vivo
Pons [23] = assay: Drug uptake in anesthetized cynomolgus monkey brain pons after 35 mins postinjection; type: ADME, organism-based, Macaca fascicularis; conditions: in vivo
Putamen [24] = assay: Drug uptake in anesthetized cynomolgus monkey brain putamen after 75 mins postinjection; type: ADME, organism-based, Macaca fascicularis; set-up: unit not given here; conditions: in vivo, 1.25 h
[25] = Drug uptake in anesthetized cynomolgus monkey brain cerebellum after 9.5 mins postinjection; type: ADME, organism-based, Macaca fascicularis; conditions: in vivo
Putamen [26] = assay: Drug uptake in anesthetized cynomolgus monkey brain putamen after 4.5 mins postinjection; type: ADME, organism-based, Macaca fascicularis; set-up: unit not given here; conditions: in vivo, 0.075 h
[27] = Ratio of drug uptake in midbrain to cerebellum in anesthetized cynomolgus monkey after 145 mins postinjection; type: ADME, organism-based, Macaca fascicularis; conditions: in vivo
Midbrain [28] = assay: Drug uptake in anesthetized cynomolgus monkey brain midbrain after 45 mins postinjection; type: ADME, organism-based, Macaca fascicularis; set-up: unit not given here; conditions: in vivo, 0.75 h
[29] = Ratio of drug uptake in pons to cerebellum in anesthetized cynomolgus monkey after 195 mins postinjection; type: ADME, organism-based, Macaca fascicularis; conditions: in vivo, 3.25 h
[30] = Ratio of drug uptake in putamen to cerebellum in anesthetized cynomolgus monkey after 155 mins postinjection; type: ADME, organism-based, Macaca fascicularis; conditions: in vivo
Thalamus [31] = assay: Drug uptake in anesthetized cynomolgus monkey brain thalamus after 85 mins postinjection; type: ADME, organism-based, Macaca fascicularis; set-up: unit not given here; conditions: in vivo
[32] = Drug uptake in anesthetized cynomolgus monkey brain frontal lobe after 65 mins postinjection; type: ADME, organism-based, Macaca fascicularis; conditions: in vivo
[33] = Ratio of drug uptake in occipital lobe to cerebellum in anesthetized cynomolgus monkey after 4.5 mins postinjection; type: ADME, organism-based, Macaca fascicularis; conditions: in vivo, 0.075 h
[34] = Ratio of drug uptake in putamen to cerebellum in anesthetized cynomolgus monkey after 75 mins postinjection; type: ADME, organism-based, Macaca fascicularis; conditions: in vivo, 1.25 h
[35] = Ratio of drug uptake in medulla to cerebellum in anesthetized cynomolgus monkey after 0.5 mins postinjection; type: ADME, organism-based, Macaca fascicularis; conditions: in vivo
Medulla [36] = assay: Drug uptake in anesthetized cynomolgus monkey brain medulla after 165 mins postinjection; type: ADME, organism-based, Macaca fascicularis; conditions: in vivo, 2.75 h
Medulla [37] = assay: Drug uptake in anesthetized cynomolgus monkey brain medulla after 225 mins postinjection; type: ADME, organism-based, Macaca fascicularis; conditions: in vivo, 3.75 h
[38] = Drug uptake in anesthetized cynomolgus monkey brain occipital lobe after 135 mins postinjection; type: ADME, organism-based, Macaca fascicularis; conditions: in vivo, 2.25 h
Thalamus [39] = assay: Drug uptake in anesthetized cynomolgus monkey brain thalamus after 95 mins postinjection; type: ADME, organism-based, Macaca fascicularis; set-up: unit not given here; conditions: in vivo
[40] = Ratio of drug uptake in putamen to cerebellum in anesthetized cynomolgus monkey after 3.5 mins postinjection; type: ADME, organism-based, Macaca fascicularis; conditions: in vivo
Midbrain [41] = assay: Drug uptake in anesthetized cynomolgus monkey brain midbrain after 0.5 mins postinjection; type: ADME, organism-based, Macaca fascicularis; set-up: unit not given here; conditions: in vivo
Thalamus [42] = assay: Drug uptake in anesthetized cynomolgus monkey brain thalamus after 105 mins postinjection; type: ADME, organism-based, Macaca fascicularis; set-up: unit not given here; conditions: in vivo, 1.75 h
Midbrain [43] = assay: Drug uptake in anesthetized cynomolgus monkey brain midbrain after 155 mins postinjection; type: ADME, organism-based, Macaca fascicularis; conditions: in vivo
Midbrain [44] = assay: Drug uptake in anesthetized cynomolgus monkey brain midbrain after 6.5 mins postinjection; type: ADME, organism-based, Macaca fascicularis; set-up: unit not given here; conditions: in vivo
[45] = Drug uptake in anesthetized cynomolgus monkey brain frontal lobe after 4.5 mins postinjection; type: ADME, organism-based, Macaca fascicularis; conditions: in vivo, 0.075 h
[46] = Drug uptake in anesthetized cynomolgus monkey brain cerebellum after 75 mins postinjection; type: ADME, organism-based, Macaca fascicularis; conditions: in vivo, 1.25 h
[47] = Ratio of drug uptake in medulla to cerebellum in anesthetized cynomolgus monkey after 155 mins postinjection; type: ADME, organism-based, Macaca fascicularis; conditions: in vivo
Medulla [48] = assay: Drug uptake in anesthetized cynomolgus monkey brain medulla after 12.5 mins postinjection; type: ADME, organism-based, Macaca fascicularis; conditions: in vivo
Medulla [49] = assay: Drug uptake in anesthetized cynomolgus monkey brain medulla after 4.5 mins postinjection; type: ADME, organism-based, Macaca fascicularis; conditions: in vivo, 0.075 h
[50] = Drug uptake in anesthetized cynomolgus monkey brain frontal lobe after 0.5 mins postinjection; type: ADME, organism-based, Macaca fascicularis; conditions: in vivo
Caudate [51] = assay: Drug uptake in anesthetized cynomolgus monkey brain caudate after 55 mins postinjection; type: ADME, organism-based, Macaca fascicularis, Caudate nucleus; conditions: in vivo
[52] = Drug uptake in anesthetized cynomolgus monkey brain frontal lobe after 165 mins postinjection; type: ADME, organism-based, Macaca fascicularis; conditions: in vivo, 2.75 h
[53] = Drug uptake in anesthetized cynomolgus monkey brain occipital lobe after 45 mins postinjection; type: ADME, organism-based, Macaca fascicularis; conditions: in vivo, 0.75 h
Caudate [54] = assay: Drug uptake in anesthetized cynomolgus monkey brain caudate after 85 mins postinjection; type: ADME, organism-based, Macaca fascicularis, Caudate nucleus; conditions: in vivo
Medulla [55] = assay: Drug uptake in anesthetized cynomolgus monkey brain medulla after 45 mins postinjection; type: ADME, organism-based, Macaca fascicularis; conditions: in vivo, 0.75 h
[56] = Ratio of drug uptake in caudate to cerebellum in anesthetized cynomolgus monkey after 95 mins postinjection; type: ADME, organism-based, Macaca fascicularis; conditions: in vivo
Putamen [57] = assay: Drug uptake in anesthetized cynomolgus monkey brain putamen after 195 mins postinjection; type: ADME, organism-based, Macaca fascicularis; conditions: in vivo, 3.25 h
[58] = Ratio of drug uptake in midbrain to cerebellum in anesthetized cynomolgus monkey after 22.5 mins postinjection; type: ADME, organism-based, Macaca fascicularis; conditions: in vivo, 0.375 h
Midbrain [59] = assay: Drug uptake in anesthetized cynomolgus monkey brain midbrain after 195 mins postinjection; type: ADME, organism-based, Macaca fascicularis; conditions: in vivo, 3.25 h
[60] = Drug uptake in anesthetized cynomolgus monkey brain occipital lobe after 75 mins postinjection; type: ADME, organism-based, Macaca fascicularis; conditions: in vivo, 1.25 h
[61] = Drug uptake in anesthetized cynomolgus monkey brain cerebellum after 22.5 mins postinjection; type: ADME, organism-based, Macaca fascicularis; conditions: in vivo, 0.375 h
Medulla [62] = assay: Drug uptake in anesthetized cynomolgus monkey brain medulla after 175 mins postinjection; type: ADME, organism-based, Macaca fascicularis; conditions: in vivo
[63] = Drug uptake in anesthetized cynomolgus monkey brain frontal lobe after 175 mins postinjection; type: ADME, organism-based, Macaca fascicularis; conditions: in vivo
Thalamus [64] = assay: Drug uptake in anesthetized cynomolgus monkey brain thalamus after 12.5 mins postinjection; type: ADME, organism-based, Macaca fascicularis; set-up: unit not given here; conditions: in vivo
Caudate [65] = assay: Drug uptake in anesthetized cynomolgus monkey brain caudate after 65 mins postinjection; type: ADME, organism-based, Macaca fascicularis, Caudate nucleus; conditions: in vivo
Caudate [66] = assay: Drug uptake in anesthetized cynomolgus monkey brain caudate after 155 mins postinjection; type: ADME, organism-based, Macaca fascicularis, Caudate nucleus; conditions: in vivo
Caudate [67] = assay: Drug uptake in anesthetized cynomolgus monkey brain caudate after 2.5 mins postinjection; type: ADME, organism-based, Macaca fascicularis, Caudate nucleus; conditions: in vivo
[68] = Ratio of drug uptake in frontal lobe to cerebellum in anesthetized cynomolgus monkey after 145 mins postinjection; type: ADME, organism-based, Macaca fascicularis; conditions: in vivo

O=C(OCCC[18F])C1C2CCC(CC1c1cccc(/C=C\I)c1)N2 (stereo not drawn)
Drug uptake [1]: 0.01
Ratio [2]: 0.9
Drug uptake [3]: 2.29
Drug uptake (Midbrain [4]): 3.69
Ratio [5]: 1.3
Drug uptake (Pons [6]): 3.34
Drug uptake [7]: 2.09
Drug uptake (Caudate [8]): 4.05
Drug uptake (Medulla [9]): 5.08
Drug uptake [10]: 0.83
Drug uptake (Caudate [11]): 3.53
Ratio [12]: 1.2
Drug uptake (Pons [13]): 4.5
Drug uptake (Caudate [14]): 3.9
Drug uptake (Caudate [15]): 3.38
Drug uptake (Thalamus [16]): 4.22
Drug uptake [17]: 2.11
Ratio [18]: 1
Ratio [19]: 0.8
Drug uptake (Thalamus [20]): 4.15
Drug uptake (Thalamus [21]): 0.8
Drug uptake (Medulla [22]): 4.09
Drug uptake (Pons [23]): 4.25
Drug uptake (Putamen [24]): 4.92
Drug uptake [25]: 4.24
Drug uptake (Putamen [26]): 2.31
Ratio [27]: 1.8
Drug uptake (Midbrain [28]): 5.02
Ratio [29]: 1.5
Ratio [30]: 1.6
Drug uptake (Thalamus [31]): 4.59
Drug uptake [32]: 2.77
Ratio [33]: 0.8
Ratio [34]: 1.3
Ratio [35]: 1.5
Drug uptake (Medulla [36]): 4.45
Drug uptake (Medulla [37]): 3.6
Drug uptake [38]: 2.82
Drug uptake (Thalamus [39]): 4.52
Ratio [40]: 0.8
Drug uptake (Midbrain [41]): 0.01
Drug uptake (Thalamus [42]): 4.44
Drug uptake (Midbrain [43]): 4.35
Drug uptake (Midbrain [44]): 3.41
Drug uptake [45]: 1.31
Drug uptake [46]: 3.87
Ratio [47]: 1.8
Drug uptake (Medulla [48]): 4.73
Drug uptake (Medulla [49]): 2.58
Drug uptake [50]: 0
Drug uptake (Caudate [51]): 4.09
Drug uptake [52]: 2.08
Drug uptake [53]: 4.09
Drug uptake (Caudate [54]): 3.94
Drug uptake (Medulla [55]): 5.13
Ratio [56]: 1.1
Drug uptake (Putamen [57]): 3.39
Ratio [58]: 1
Drug uptake (Midbrain [59]): 3.85
Drug uptake [60]: 3.68
Drug uptake [61]: 4.78
Drug uptake (Medulla [62]): 4.08
Drug uptake [63]: 2.05
Drug uptake (Thalamus [64]): 3.75
Drug uptake (Caudate [65]): 3.99
Drug uptake (Caudate [66]): 3.19
Drug uptake (Caudate [67]): 0.64
Ratio [68]: 1
